Key:
[1] = RSSH generation and quantification of cyclic ureas by UPLC-MS with HPE-IAM or NEM trap; type: physicochemical; settings: precursor 10 μM, pH 7.4 ammonium bicarbonate buffer; for yield of cyclic urea byproduct: HPE-IAM 500 μM (50 equiv.), 37° C.; for cyclic urea byproduct formation: HPE-IAM 500 μM, 37° C. (7a 15 min, 7c 7 h)
Procedure: Precursor 1a was dissolved in DMSO to afford a 1 mM stock solution. Similarly, HPE-IAM and N-ethyl maleimide (NEM) were independently dissolved in DMSO to obtain 50 mM stock solutions. To a 20 mL scintillation vial, HPE-IAM or NEM (30 μL, 50 mM) was added in pH 7.4 ammonium bicarbonate buffer (2.94 mL) containing the DTPA (100 μM). The resulting solution was pre-incubated at 37° C. for 10 min. Precursor 1a (30 μL, 1 mM) was then added into the mixture and incubated for 15 min at 37° C. An aliquot of the reaction mixture (500 μL) was withdrawn, 4-hydroxyphenylacetamide (10 μM) was added as internal standard, and analyzed using UPLC-MS as follows: Mobile phase: 0-1 min 90% water+0% ACN+10% formic acid (0.1%); 1-7.5 min gradient up to 10% water+80% ACN+10% formic acid (0.1%); 7.5-8.4 min 10% water+80% ACN+10% formic acid (0.1%); 8.4-8.5 min gradient up to 90% water+0% ACN+10% formic acid (0.1%), 8.5-10 min 90% water+0% ACN+10% formic acid (0.1%). Flow rate=0.3 mL/min. […] These studies were conducted at least in triplicate and representative spectra are presented.
Precursors 7a-d (10 μM) were independently incubated with HPE-IAM (500 μM) in pH 7.4 ammonium bicarbonate buffer (50 mM) containing DTPA (100 μM) at 37° C. The reaction mixture (500 μL) was analyzed using UPLC-MS. To quantify 2a-d generated from these precursors, a calibration curve of each individual cyclic urea with known concentrations was independently generated.
Precursor 1a was dissolved in DMSO to afford a 1 mM stock solution. Similarly, HPE-IAM was dissolved in DMSO to obtain a 50 mM stock solution. To a 20 mL scintillation vial, HPE-IAM (30 μL, 50 mM) was added in pH 7.4 ammonium bicarbonate buffer (2.94 mL) containing the DTPA (100 μM). The resulting solution was pre-incubated at 37° C. for 10 min. Precursor 1a (30 μL, 1 mM) was then added into the mixture and incubated for 15 min at 37° C. An aliquot of the reaction mixture (500 μL) was withdrawn and analyzed using UPLC-MS as follows: Mobile phase: 0-1 min 90% water+0% ACN+10% formic acid (0.1%); 1-7.5 min gradient up to 10% water+80% ACN+10% formic acid (0.1%); 7.5-8.4 min 10% water+80% ACN+10% formic acid (0.1%); 8.4-8.5 min gradient up to 90% water+0% ACN+10% formic acid (0.1%), 8.5-10 min 90% water+0% ACN+10% formic acid (0.1%). Flow rate=0.3 mL/min. The mass signals for product of RSSH trapping with HPE-IAM were obtained via deconvolution using MassLynx 4.1 software. These studies were conducted at least in triplicate and representative spectra are presented.
Precursors 7a-d (10 μM) were independently incubated with HPE-IAM (500 μM) in pH 7.4 ammonium bicarbonate buffer (50 mM) containing DTPA (100 μM) at 37° C. This reaction mixture was analyzed by UPLC-MS as follows: Mobile phase: 0-1 min 90% water+0% ACN+10% formic acid (0.1%); 1-7.5 min gradient up to 10% water+80% ACN+10% formic acid (0.1%); 7.5-8.4 min 10% water+80% ACN+10% formic acid (0.1%); 8.4-8.5 min gradient up to 90% water+0% ACN+10% formic acid (0.1%), 8.5-10 min 90% water+0% ACN+10% formic acid (0.1%). Flow rate=0.3 mL/min. To quantify 2a-d generated from these precursors, a calibration curve of each individual cyclic urea with known concentrations was independently generated.

H9c2 cells [2] = assay: H9c2 cell protection from H2O2-mediated oxidative stress, Cell Counting Kit-8 (CCK-8); type: cell-based, rat; settings: 2 h pretreatment (7b 50, 100, 150 μM; byproduct 150 μM), then H2O2 200 μM 2 h
Procedure: Cells were seeded at a density of 5×10^3 cells/well. After 24 h, precursor 7b or byproduct 2b was added at 20 μL volumes using DMSO:H2O (<0.01% DMSO as the vehicle). Cells were incubated for 2 h before media was removed and the cells gently washed with PBS (pH 7.4). Then, 180 μL of fresh media and 20 μL H2O2 diluted into H2O were added and cells were incubated for an additional 2 h. At the completion of H2O2 exposure, each well is carefully washed 3 times with PBS (pH 7.4) before adding 100 μL of media, without-FBS, containing 10% v/v CCK-8 (Dojindo) and incubated for 3 h prior to obtaining absorbance values at 450 nm. The relative % viability was calculated as 100 times the ratio of the Abs450 (pretreated, H2O2-exposed) over Abs450 (vehicle-treated, non H2O2-exposed).

H9c2 cells [3] = assay: H9c2 cell protection from H2O2-mediated oxidative stress, SYTOX Green nucleic acid stain; type: cell-based, rat; settings: 2 h pretreatment (150 μM for 8), then H2O2 200 μM
Procedure: Cells were seeded at a density of 1×10^4 cells/well. After 24 h, precursor 7b or byproduct 2b is added in 20 μL volumes using DMSO: H2O (<0.01% DMSO). Cells were incubated for 2 h before media was removed and the cells gently washed with PBS (pH 7.4). Then, 180 μL of fresh media and 20 μL H2O2 diluted in H2O were added before cells were incubated for an additional 1 h. After removing this media, 100 μL of media containing 3 μM SYTOX™ Green nucleic acid stain was added, and the cells incubated for 2 h before fluorescence readings were obtained at 485Ex/538Em (Step 1). Finally, an additional 100 μL of media containing 3 μM SYTOX™ and 0.2% Triton X-100 was added in order to permeabilize all cells and incubated for 1 h before fluorescence values measured (Step 2). The relative % cells surviving was calculated as a 100% minus the ratio of the fluorescence value of Step 1 over Step 2 (% cells surviving=100%−(FL538 (Step 1)/FL538 (Step 2)). Fluorescence values for vehicle-treated, non-H2O2-exposed wells were treated as background cell death and this value is added to the % cell survival for each subsequent group.
See Hofgaard et al., 2006, for general procedures. […] After removing this media, 100 μL of media containing 3 μM SYTOX® Green nucleic acid stain was added, and the cells incubated for 2 h before fluorescence readings were obtained at 485Ex/538Em (Step 1). […]

Compound | yield of cyclic urea byproduct [1] [%] | cyclic urea byproduct formation [1] [µM] | protection against H2O2-mediated toxicity (CCK-8 viability) (H9c2 cells [2]) | protection against H2O2-mediated toxicity (SYTOX) (H9c2 cells [3])
3-(((3-acetamido-4-methoxy-2-methyl-4-oxobutan-2-yl)disulfannecarbonyl)(methyl)amino)-N-methylpropan-1-aminium [Precursor 7c] | 88 | 8.8 ± 0.2 | – | –
CNCCN(C)C(=O)SSC(C)(C)C(NC(C)=O)C(=O)OC (stereo not drawn) [Precursor 7a, 2-(((3-acetamido-4-methoxy-2-methyl-4-oxobutan-2-yl)disulfannecarbonyl)(methyl)amino)-N-methylethan-1-aminium] | 87 | 8.7 ± 0.4 | – | –
COC(=O)C(NC(C)=O)C(C)(C)SSC(=O)N(C)CCN (stereo not drawn) [Precursor 7b, 2-(((3-acetamido-4-methoxy-2-methyl-4-oxobutan-2-yl)disulfannecarbonyl)(methyl)amino)ethan-1-aminium] | – | – | dose-dependent attenuation | protective effects

— patent US11584712B2, “Alkylamine-substituted perthiocarbamates as dual precursors to hydropersulfide and carbonyl sulfide” (The Johns Hopkins University, priority 2020, dated 2023)
